Laboratory results as given in PubChem BioAssay AID1259407 (Chemical Carcinogenesis Research Information System (CCRIS), 2018).
Active and inactive are the calls of the source. No rule for the calls is given here.

Test system: CCRIS mutagenicity, Ames/micronucleus/aberration tests
Assay: CCRIS mutagenicity studies
[1] = Test System: AMES SALMONELLA TYPHIMURIUM, Strain/Indicator: TA98, Metabolic Activation: NONE, Method: STANDARD PLATE
[2] = Test System: AMES SALMONELLA TYPHIMURIUM, Strain/Indicator: TA98, Metabolic Activation: RAT, LIVER, S-9, AROCLOR 1254, Method: STANDARD PLATE
[3] = Test System: AMES SALMONELLA TYPHIMURIUM, Strain/Indicator: TA100, Metabolic Activation: NONE, Method: STANDARD PLATE
[4] = Test System: AMES SALMONELLA TYPHIMURIUM, Strain/Indicator: TA100, Metabolic Activation: RAT, LIVER, S-9, AROCLOR 1254, Method: STANDARD PLATE
[5] = Test System: AMES SALMONELLA TYPHIMURIUM, Strain/Indicator: TA1535, Metabolic Activation: NONE, Method: STANDARD PLATE
[6] = Test System: MOUSE LYMPHOMA, Strain/Indicator: L5178Y (TK+/TK-), Metabolic Activation: NONE, Method: SUSPENSION/PLATE
[7] = Test System: AMES SALMONELLA TYPHIMURIUM, Strain/Indicator: TA98, Metabolic Activation: NONE, Method: PREINCUBATION
[8] = Test System: AMES SALMONELLA TYPHIMURIUM, Strain/Indicator: TA98, Metabolic Activation: HAMSTER, LIVER, S-9, AROCLOR 1254 (10%), Method: PREINCUBATION
[9] = Test System: AMES SALMONELLA TYPHIMURIUM, Strain/Indicator: TA98, Metabolic Activation: RAT, LIVER, S-9, AROCLOR 1254 (10%), Method: PREINCUBATION
[10] = Test System: AMES SALMONELLA TYPHIMURIUM, Strain/Indicator: TA100, Metabolic Activation: HAMSTER, LIVER, S-9, AROCLOR 1254 (10%), Method: PREINCUBATION
[11] = Test System: AMES SALMONELLA TYPHIMURIUM, Strain/Indicator: TA100, Metabolic Activation: NONE, Method: PREINCUBATION
[12] = Test System: AMES SALMONELLA TYPHIMURIUM, Strain/Indicator: TA100, Metabolic Activation: RAT, LIVER, S-9, AROCLOR 1254 (10%), Method: PREINCUBATION
[13] = Test System: AMES SALMONELLA TYPHIMURIUM, Strain/Indicator: TA1535, Metabolic Activation: HAMSTER, LIVER, S-9, AROCLOR 1254 (10%), Method: PREINCUBATION
[14] = Test System: AMES SALMONELLA TYPHIMURIUM, Strain/Indicator: TA1535, Metabolic Activation: NONE, Method: PREINCUBATION
[15] = Test System: AMES SALMONELLA TYPHIMURIUM, Strain/Indicator: TA1535, Metabolic Activation: RAT, LIVER, S-9, AROCLOR 1254 (10%), Method: PREINCUBATION
[16] = Test System: AMES SALMONELLA TYPHIMURIUM, Strain/Indicator: TA1537, Metabolic Activation: HAMSTER, LIVER, S-9, AROCLOR 1254 (10%), Method: PREINCUBATION
[17] = Test System: AMES SALMONELLA TYPHIMURIUM, Strain/Indicator: TA1537, Metabolic Activation: NONE, Method: PREINCUBATION
[18] = Test System: AMES SALMONELLA TYPHIMURIUM, Strain/Indicator: TA1537, Metabolic Activation: RAT, LIVER, S-9, AROCLOR 1254 (10%), Method: PREINCUBATION

Measured: mutagenic call

CCn1cc(C(=O)O)c(=O)c2cc(F)c(-c3ccncc3)c(F)c21
inactive: Test System: AMES SALMONELLA TYPHIMURIUM, Strain/Indicator: TA98, Metabolic Activation: MOUSE, LIVER, S-9, AROCLOR 1254, Method: STANDARD PLATE inactive; negative | [1] inactive; negative | [2] inactive; negative | Test System: AMES SALMONELLA TYPHIMURIUM, Strain/Indicator: TA100, Metabolic Activation: MOUSE, LIVER, S-9, AROCLOR 1254, Method: STANDARD PLATE inactive; negative | [3] inactive; negative | [4] inactive; negative | Test System: AMES SALMONELLA TYPHIMURIUM, Strain/Indicator: TA1535, Metabolic Activation: MOUSE, LIVER, S-9, AROCLOR 1254, Method: STANDARD PLATE inactive; negative | [5] inactive; negative | Test System: AMES SALMONELLA TYPHIMURIUM, Strain/Indicator: TA1535, Metabolic Activation: RAT, LIVER, S-9, AROCLOR 1254, Method: STANDARD PLATE inactive; negative | Test System: AMES SALMONELLA TYPHIMURIUM, Strain/Indicator: TA1537, Metabolic Activation: MOUSE, LIVER, S-9, AROCLOR 1254, Method: STANDARD PLATE inactive; negative | Test System: AMES SALMONELLA TYPHIMURIUM, Strain/Indicator: TA1537, Metabolic Activation: NONE, Method: STANDARD PLATE inactive; negative | Test System: AMES SALMONELLA TYPHIMURIUM, Strain/Indicator: TA1537, Metabolic Activation: RAT, LIVER, S-9, AROCLOR 1254, Method: STANDARD PLATE inactive; negative
active: Test System: CHINESE HAMSTER OVARY, Strain/Indicator: CHO-K1-CMZ (HGPRT), Metabolic Activation: NONE active; positive | Test System: CHINESE HAMSTER V-79, Strain/Indicator: V-79/6-THIOGUANINE, Metabolic Activation: NONE active; positive | Test System: CHINESE HAMSTER V-79, Strain/Indicator: V-79/6-THIOGUANINE, Metabolic Activation: RAT, LIVER, S-9, AROCLOR 1254 active; positive | [6] active; positive | Test System: MOUSE LYMPHOMA, Strain/Indicator: L5178Y (TK+/TK-), Metabolic Activation: RAT, LIVER, S-9, Method: SUSPENSION/PLATE active; positive

Nc1ccc(/C=C/c2ccccc2)cc1
active: Test System: AMES SALMONELLA TYPHIMURIUM, Strain/Indicator: TA98(1,8-DNP6), Metabolic Activation: S-9, Method: STANDARD PLATE active; positive | Test System: AMES SALMONELLA TYPHIMURIUM, Strain/Indicator: TA98, Metabolic Activation: RAT LIVER S9, AROCLOR, Method: STANDARD PLATE active; positive | [2] active; positive | Test System: AMES SALMONELLA TYPHIMURIUM, Strain/Indicator: TA98, Metabolic Activation: S-9, Method: STANDARD PLATE active; positive | Test System: AMES SALMONELLA TYPHIMURIUM, Strain/Indicator: TA100, Metabolic Activation: RAT, LIVER, S9, AROCLOR, Method: STANDARD PLATE active; positive | [4] active; positive | Test System: AMES SALMONELLA TYPHIMURIUM, Strain/Indicator: TA100, Metabolic Activation: RAT, LIVER, S-9, PHENOBARBITAL, Method: STANDARD PLATE active; positive | Test System: AMES SALMONELLA TYPHIMURIUM, Strain/Indicator: TA100, Metabolic Activation: S-9, Method: STANDARD PLATE active; positive | Test System: AMES SALMONELLA TYPHIMURIUM, Strain/Indicator: TA1538, Metabolic Activation: RAT, LIVER, S-9, PHENOBARBITAL, Method: STANDARD PLATE active; positive
inactive: Test System: AMES SALMONELLA TYPHIMURIUM, Strain/Indicator: TA98(1,8-DNP6), Metabolic Activation: NONE, Method: STANDARD PLATE inactive; negative | [3] inactive; negative

CS(=O)CCCC/C(=N\OS(=O)(=O)O)S[C@@H]1O[C@H](CO)[C@@H](O)[C@H](O)[C@H]1O (stereo partly specified)
inactive: End Point: IN VITRO MICRONUCLEUS, Test System: HUMAN T-LYMPHOCYTES, Metabolic Activation: NONE inactive; negative

Cc1c2c3ccccc3nc-2n(C)c2ccccc12
active: Test System: AMES SALMONELLA TYPHIMURIUM, Strain/Indicator: TA97, Metabolic Activation: RAT, LIVER, S-9, AROCLOR 1254, Method: STANDARD PLATE active; positive | Test System: AMES SALMONELLA TYPHIMURIUM, Strain/Indicator: TA102, Metabolic Activation: RAT, LIVER, S-9, AROCLOR 1254, Method: STANDARD PLATE active; positive

CCC(C)NC(=O)C=Cc1ccc([N+](=O)[O-])o1 (stereo unspecified)
active: [7] active; positive

CC(C)CC(C)Nc1ccc(Nc2ccccc2)cc1 (stereo unspecified)
inactive: Test System: AMES SALMONELLA TYPHIMURIUM, Strain/Indicator: TA97, Metabolic Activation: MOUSE, LIVER, S-9, DELOR 103, Method: STANDARD PLATE inactive; negative | Test System: AMES SALMONELLA TYPHIMURIUM, Strain/Indicator: TA97, Metabolic Activation: NONE, Method: STANDARD PLATE inactive; negative | [8] inactive; negative | Test System: AMES SALMONELLA TYPHIMURIUM, Strain/Indicator: TA98, Metabolic Activation: MOUSE, LIVER, S-9, DELOR 103, Method: STANDARD PLATE inactive; negative | [7] inactive; negative | [1] inactive; negative | [9] inactive; negative | [10] inactive; negative | Test System: AMES SALMONELLA TYPHIMURIUM, Strain/Indicator: TA100, Metabolic Activation: MOUSE, LIVER, S-9, DELOR 103, Method: STANDARD PLATE inactive; negative | [11] inactive; negative | [3] inactive; negative | [12] inactive; negative | [13] inactive; negative | [14] inactive; negative | [5] inactive; negative | [15] inactive; negative | [16] inactive; negative | [17] inactive; negative | [18] inactive; negative | Test System: AMES SALMONELLA TYPHIMURIUM, Strain/Indicator: TA1538, Metabolic Activation: NONE, Method: STANDARD PLATE inactive; negative

CC(C)=CC(=O)C=C(C)C
inactive: [6] inactive; negative

CCC(O)CN(CC(O)CC)N=O (stereo unspecified)
inactive: Test System: CHINESE HAMSTER V-79, Strain/Indicator: V-79/OUABAIN, Metabolic Activation: HAMSTER, HEPATOCYTES, Method: CELL-MEDIATED inactive; negative

COc1cc2c(cc1OC)[C@@]13CCN4CC5=CCO[C@H]6CC(=O)N2[C@H]1[C@H]6[C@H]5C[C@H]43
inactive: [8] inactive; negative | [7] inactive; negative | [9] inactive; negative | [10] inactive; negative | [11] inactive; negative | [12] inactive; negative | [13] inactive; negative | [14] inactive; negative | [15] inactive; negative | [16] inactive; negative | [17] inactive; negative | [18] inactive; negative
